Assay results as given in patent US4981848A, “Alpha-adrenergic receptor antagonists” (SmithKline Beecham Corporation, priority 1989, dated 1991).

Test system: spontaneously hypertensive rats
Test: antihypertensive activity in the spontaneously hypertensive rat model
Format: in vivo
Conditions: oral administration at 20 mg/kg
Method: The antihypertensive activity of certain compounds of the present invention was determined using the spontaneously hypertensive rat model. The details of this in vivo test are found in Roesler, J. M., et al., J. Pharmacol. Exp. Ther., 236:1-7 (1986).

N-[(7-Chloro-3,4,5,6-tetrahydro-4-methylthieno[4,3,2-ef][3]benzazepin-2-yl)methyl]2-methylpropanesulfonamide [Example 7]
arterial blood pressure: dose related reduction in arterial blood pressure
